Measurements published in patent publication US9040714B2 (MannKind Corporation, priority 2010, dated 2015).

Each compound was assayed on IRE-1α-mediated XBP-1 splicing in human myeloma MM.1s cells (assay: Cellular EC50: endogenous XBP-1 splicing in myeloma cells by RT-PCR (DTT stress)). Conditions: MM1.S, average cellular EC50, XBP-1 splicing in myeloma cells, read-out: EC50_av.
Type: cell-based
Description: Human myeloma MM.1s cells are incubated with a compound for 1.25 hours before stressing the cells with 2 mM dithiothreitol (DTT). After an additional 45 minutes (2 hours total) with compound and DTT, the cells are harvested with TRIZOL® (a mono-phasic solution of phenol and guanidine isothiocyanate), and total RNA is prepared as directed by the manufacturer (Invitrogen). Human XBP-1 is amplified by RT-PCR with the following primers, which flank the 26 base unconventional intron excised by IRE-1α:
RT-PCR of unstressed (U) cells then generates the upper band. When cells are stressed (S) with the endoplasmic reticulum (ER) stressing agent DTT, IRE-1α is activated due to accumulating unfolded protein and the resulting RT-PCR, product is 26 base pairs shorter.
Compounds which pass specificity assays are assayed for cellular EC50 using endogenous XBP-1 splicing in myeloma cells. XBP-1 is regulated through the excision of a 26 nucleotide intron from the XBP-1 mRNA by the highly specific endoribonuclease activity of IRE-1α. […] This splicing event is used to measure IRE-1α activity on XBP-1 mRNA in cells and tissues.
Briefly, compounds are incubated in the presence or absence of an ER stress agent (e.g., DTT), and the ratio of XBP-1u (unspliced) to XBP-1 s (spliced) is quantified by RT-PCR. The ED50 is determined as the 50% XBP-1s to total XPB-1 levels.

Question: How did the EC50 turn out when `COCCNC(=O)CCc1nc2c(C=O)c(O)ccc2[nH]1` [Example 231] was run?
Answer: The EC50 was > 10 µM.

Question: With `O=Cc1c(O)ccc2[nH]c(CCC(=O)N3CCOCC3)nc12` [Example 232] as the compound, how does the EC50 read?
Answer: Its EC50 is > 10 µM.

Question: With `CN1CCC(NC(=O)CCc2nc3c(C=O)c(O)ccc3[nH]2)CC1` [Example 233] as the compound, how does the EC50 read?
Answer: The EC50 was < 10 µM.

Question: With `CCNC(=O)CCc1nc2c(C=O)c(O)ccc2[nH]1` [Example 234] as the compound, how does the EC50 read?
Answer: The EC50 was > 10 µM.

Question: With `O=Cc1c(O)ccc2nc(CCC(=O)NCCN3CCOCC3)[nH]c12` [Example 235] as the compound, how does the EC50 read?
Answer: Its EC50 is > 10 µM.

Question: Which EC50 does the source give for `CN(C)CCNC(=O)CCc1nc2c(C=O)c(O)ccc2[nH]1` [Example 236] here?
Answer: Its EC50 is > 10 µM.

Question: For `COCCNC(=O)CCc1nc2ccc(O)c(C=O)c2n1C` [Example 237], which EC50 is on record?
Answer: Its EC50 is > 10 µM.

Question: For `Cn1c(CCC(=O)NCCN2CCOCC2)nc2ccc(O)c(C=O)c21` [Example 238], which EC50 is on record?
Answer: The EC50 was > 10 µM.

Question: For `CN1CCN(C(=O)CCc2nc3ccc(O)c(C=O)c3n2C)CC1` [Example 239], which EC50 is on record?
Answer: The EC50 was > 10 µM.

Question: Which EC50 does the source give for `Cn1c(CCC(=O)O)nc2ccc(O)c(C=O)c21` [Example 240] here?
Answer: Its EC50 is > 10 µM.

Question: For `COCCNC(=O)CCc1nc2c(C=O)c(O)ccc2n1C` [Example 241], which EC50 is on record?
Answer: The EC50 was > 10 µM.

Question: How did the EC50 turn out when `Cn1c(CCC(=O)N2CCOCC2)nc2c(C=O)c(O)ccc21` [Example 242] was run?
Answer: The EC50 was > 10 µM.

Question: Which EC50 does the source give for `Cn1c(CCC(=O)NCCN2CCOCC2)nc2c(C=O)c(O)ccc21` [Example 243] here?
Answer: The EC50 was > 10 µM.

Question: `CN1CCN(C(=O)CCc2nc3c(C=O)c(O)ccc3n2C)CC1` [Example 244] was tested. Which EC50 did it give?
Answer: Its EC50 is > 10 µM.

Question: Which EC50 does the source give for `CCOC(=O)CCc1nc2c(C=O)c(O)ccc2n1C` [Example 245] here?
Answer: The EC50 was < 10 µM.

Question: Which EC50 does the source give for `Cn1c(CCC(=O)O)nc2c(C=O)c(O)ccc21` [Example 246] here?
Answer: Its EC50 is > 10 µM.

Question: With `CCOC(=O)CCc1nc2c(C=O)c(O)ccc2o1` [Example 247] as the compound, how does the EC50 read?
Answer: Its EC50 is > 10 µM.

Question: For `O=Cc1c(O)ccc2oc(CCC(=O)O)nc12` [Example 248], which EC50 is on record?
Answer: Its EC50 is > 10 µM.

Question: How did the EC50 turn out when `COCCNC(=O)CCc1nc2c(C=O)c(O)ccc2o1` [Example 249] was run?
Answer: The EC50 was > 10 µM.

Question: Which EC50 does the source give for `O=Cc1c(O)ccc2oc(CCC(=O)N3CCOCC3)nc12` [Example 250] here?
Answer: The EC50 was > 10 µM.

Question: Which EC50 does the source give for `CN1CCN(C(=O)CCc2nc3c(C=O)c(O)ccc3o2)CC1` [Example 251] here?
Answer: Its EC50 is > 10 µM.

Question: How did the EC50 turn out when `CCNC(=O)CCc1nc2c(C=O)c(O)ccc2o1` [Example 252] was run?
Answer: Its EC50 is > 10 µM.

Question: For `O=Cc1c(O)ccc2oc(CCC(=O)NCCN3CCOCC3)nc12` [Example 253], which EC50 is on record?
Answer: Its EC50 is < 10 µM.

Question: For `CC(C(=O)N1CCOCC1)c1nc2c(C=O)c(O)ccc2o1` (stereo not drawn) [Example 254], which EC50 is on record?
Answer: Its EC50 is > 10 µM.

Question: With `Cc1nc2c(C=O)c(O)ccc2o1` [Example 255] as the compound, how does the EC50 read?
Answer: The EC50 was < 10 µM.

Question: For `Cc1nc2ccc(O)c(C=O)c2o1` [Example 256], which EC50 is on record?
Answer: The EC50 was > 10 µM.

Question: How did the EC50 turn out when `O=Cc1c(O)ccc2ocnc12` [Example 257] was run?
Answer: The EC50 was > 10 µM.

Question: How did the EC50 turn out when `COCCNC(=O)c1cc2c(C=O)c(O)ccc2s1` [Example 258] was run?
Answer: The EC50 was > 10 µM.

Question: `O=Cc1c(O)ccc2sc(C(=O)N3CCOCC3)cc12` [Example 259] was tested. Which EC50 did it give?
Answer: Its EC50 is > 10 µM.

Question: Which EC50 does the source give for `CN1CCN(C(=O)c2cc3c(C=O)c(O)ccc3s2)CC1` [Example 260] here?
Answer: Its EC50 is > 10 µM.

Question: `CCNC(=O)c1cc2c(C=O)c(O)ccc2s1` [Example 261] was tested. Which EC50 did it give?
Answer: The EC50 was < 10 µM.

Question: Which EC50 does the source give for `O=Cc1c(O)ccc2sc(C(=O)NCCN3CCOCC3)cc12` [Example 262] here?
Answer: Its EC50 is < 10 µM.

Question: Which EC50 does the source give for `CN(C)CCNC(=O)c1cc2c(C=O)c(O)ccc2s1` [Example 263] here?
Answer: Its EC50 is > 10 µM.

Question: With `COC(=O)Cc1cc2c(C=O)c(O)ccc2s1` [Example 264] as the compound, how does the EC50 read?
Answer: Its EC50 is > 10 µM.

Question: Which EC50 does the source give for `O=Cc1c(O)ccc2sc(CC(=O)O)cc12` [Example 265] here?
Answer: The EC50 was > 10 µM.

Question: How did the EC50 turn out when `COCCNC(=O)CCc1cc2c(C=O)c(O)ccc2s1` [Example 266] was run?
Answer: Its EC50 is < 10 µM.

Question: `CCOC(=O)CCc1cc2c(C=O)c(O)ccc2s1` [Example 267] was tested. Which EC50 did it give?
Answer: The EC50 was > 10 µM.

Question: How did the EC50 turn out when `O=Cc1c(O)ccc2sc(CCC(=O)N3CCOCC3)cc12` [Example 268] was run?
Answer: The EC50 was > 10 µM.

Question: With `CCNC(=O)CCc1cc2c(C=O)c(O)ccc2s1` [Example 269] as the compound, how does the EC50 read?
Answer: Its EC50 is > 10 µM.

Question: With `CN(C)CCNC(=O)CCc1cc2c(C=O)c(O)ccc2s1` [Example 271] as the compound, how does the EC50 read?
Answer: Its EC50 is < 10 µM.

Question: Which EC50 does the source give for `COCCNC(=O)c1cc2c(C=O)c(O)ccc2[nH]1` [Example 273] here?
Answer: Its EC50 is > 10 µM.

Question: Which EC50 does the source give for `O=Cc1c(O)ccc2[nH]c(C(=O)N3CCOCC3)cc12` [Example 274] here?
Answer: The EC50 was > 10 µM.
